Columns and labels:
Experiment in all cases: Test D controlled growth environment herbicide test, pre- and postemergence
Format in all cases: in vivo
[1] = tested on: chickweed (common chickweed, Stellaria media)
In short: (§1)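 Pre-emergence: seeds sown in silt loam soil were sprayed with compound in a non-phytotoxic solvent mix containing surfactant. Post-emergence: plants at 2 to 18 cm (1- to 4-leaf stage) in peat moss/vermiculite medium got the same formulation. Visual 0–100 rating versus controls after 14 to 21 d.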

[2] = tested on: windgrass (Apera spica-venti)
In short: as §1

[3] = tested on: blackgrass (Alopecurus myosuroides)
In short: as §1

[4] = tested on: Russian thistle (Salsola kali)
In short: as §1

[5] = tested on: ryegrass, Italian (Italian ryegrass, Lolium multiflorum)
In short: as §1

[6] = tested on: wheat, spring (spring wheat, Triticum aestivum)
In short: as §1

[7] = tested on: pigweed (Amaranthus retroflexus)
In short: as §1

[8] = tested on: oilseed rape (Brassica napus)
In short: as §1

[9] = tested on: radish, wild (wild radish, Raphanus raphanistrum)
In short: as §1

[10] = tested on: wheat, winter (winter wheat, Triticum aestivum)
In short: as §1

[11] = tested on: field violet (Viola arvensis)
In short: as §1

[12] = tested on: field poppy (Papaver rhoeas)
In short: as §1

[13] = tested on: deadnettle (henbit deadnettle, Lamium amplexicaule)
In short: as §1

[14] = Postemergence, 31 g ai/ha, scale 0 to 100 (0 no effect, 100 complete control)
[15] = Postemergence, 125 g ai/ha, visual rating on scale 0 (no effect) to 100 (complete control), 14 to 21 d
[16] = Postemergence, 250 g ai/ha, scale 0 to 100 (0 no effect, 100 complete control)
[17] = Preemergence, 125 g ai/ha, scale 0 to 100 (0 no effect, 100 complete control)
[18] = Preemergence, 250 g ai/ha, scale 0 to 100 (0 no effect, 100 complete control)
[19] = postemergence, 62 g ai/ha, scale 0 to 100, 0 no effect, 100 complete control

CC(=O)Oc1c(C)nn(C)c(=O)c1-c1ccc(F)c2ccccc12 [Compound 90]
Chickweed plant response rating [1, 14]: 80 | Plant response rating, Chickweed [1, 15]: 98 | Plant response rating, Chickweed [1, 16]: 100 | Plant response rating (scale of 0 to 100), Chickweed ([1]; Preemergence, 31 g ai/ha): 100 | Plant response rating, Chickweed [1, 17]: 100 | Plant response rating, Chickweed [1, 18]: 100 | Plant response rating, Chickweed [1, 19]: 90 | Windgrass plant response rating [2, 14]: 30 | Plant response rating, Windgrass [2, 15]: 70 | Plant response rating, Windgrass [2, 16]: 90 | Plant response rating (scale of 0 to 100), Windgrass ([2]; Preemergence, 31 g ai/ha): 50 | Plant response rating (scale of 0 to 100), Windgrass ([2]; Preemergence, 62 g ai/ha): 65 | Plant response rating, Windgrass [2, 17]: 80 | Plant response rating, Windgrass [2, 18]: 98 | Plant response rating, Windgrass [2, 19]: 50 | Blackgrass plant response rating [3, 14]: 15 | Plant response rating, Blackgrass [3, 15]: 55 | Plant response rating, Blackgrass [3, 16]: 65 | Plant response rating (scale of 0 to 100), Blackgrass ([3]; Preemergence, 31 g ai/ha): 25 | Plant response rating, Blackgrass ([3]; Preemergence, 62 g ai/ha, scale 0 to 100 (0 no effect, 100 complete control)): 35 | Plant response rating, Blackgrass [3, 17]: 45 | Plant response rating, Blackgrass [3, 18]: 60 | Plant response rating, Blackgrass [3, 19]: 35 | Russian Thistle plant response rating [4, 14]: 30 | Plant response rating, Russian Thistle [4, 15]: 75 | Plant response rating, Russian Thistle [4, 16]: 90 | Plant response rating (scale of 0 to 100), Russian Thistle ([4]; Preemergence, 31 g ai/ha): 10 | Plant response rating (scale of 0 to 100), Russian Thistle ([4]; Preemergence, 62 g ai/ha): 15 | Plant response rating, Russian Thistle [4, 17]: 35 | Plant response rating, Russian Thistle [4, 18]: 60 | Plant response rating, Russian Thistle [4, 19]: 75 | Ryegrass, Italian plant response rating [5, 14]: 75 | Plant response rating, Ryegrass, Italian [5, 15]: 95 | Plant response rating, Ryegrass, Italian [5, 16]: 100 | Plant response rating (scale of 0 to 100), Ryegrass, Italian ([5]; Preemergence, 31 g ai/ha): 100 | Plant response rating (scale of 0 to 100), Ryegrass, Italian ([5]; Preemergence, 62 g ai/ha): 100 | Plant response rating, Ryegrass, Italian [5, 17]: 100 | Plant response rating, Ryegrass, Italian [5, 18]: 100 | Plant response rating, Ryegrass, Italian [5, 19]: 90 | Wheat, Spring plant response rating [6, 14]: 25 | Plant response rating, Wheat, Spring [6, 15]: 40 | Plant response rating, Wheat, Spring [6, 16]: 50 | Plant response rating (scale of 0 to 100), Wheat, Spring ([6]; Preemergence, 31 g ai/ha): 20 | Plant response rating (scale of 0 to 100), Wheat, Spring ([6]; Preemergence, 62 g ai/ha): 35 | Plant response rating, Wheat, Spring [6, 17]: 60 | Plant response rating, Wheat, Spring [6, 18]: 70 | Plant response rating, Wheat, Spring [6, 19]: 35 | Pigweed plant response rating [7, 14]: 80 | Plant response rating, Pigweed [7, 15]: 95 | Plant response rating, Pigweed [7, 16]: 100 | Plant response rating (scale of 0 to 100), Pigweed ([7]; Preemergence, 31 g ai/ha): 25 | Plant response rating (scale of 0 to 100), Pigweed ([7]; Preemergence, 62 g ai/ha): 35 | Plant response rating, Pigweed [7, 17]: 100 | Plant response rating, Pigweed [7, 18]: 100 | Plant response rating, Pigweed [7, 19]: 90 | Oilseed Rape plant response rating [8, 14]: 0 | Plant response rating, Oilseed Rape [8, 15]: 15 | Plant response rating, Oilseed Rape [8, 16]: 70 | Plant response rating (scale of 0 to 100), Oilseed Rape ([8]; Preemergence, 31 g ai/ha): 0 | Plant response rating (scale of 0 to 100), Oilseed Rape ([8]; Preemergence, 62 g ai/ha): 0 | Plant response rating, Oilseed Rape [8, 17]: 0 | Plant response rating, Oilseed Rape [8, 18]: 0 | Plant response rating, Oilseed Rape [8, 19]: 5 | Radish, Wild plant response rating [9, 14]: 65 | Plant response rating, Radish, Wild [9, 15]: 75 | Plant response rating, Radish, Wild [9, 16]: 95 | Plant response rating (scale of 0 to 100), Radish, Wild ([9]; Preemergence, 31 g ai/ha): 0 | Plant response rating (scale of 0 to 100), Radish, Wild ([9]; Preemergence, 62 g ai/ha): 65 | Plant response rating, Radish, Wild [9, 17]: 90 | Plant response rating, Radish, Wild [9, 18]: 95 | Plant response rating, Radish, Wild [9, 19]: 75 | Wheat, Winter plant response rating [10, 14]: 20 | Plant response rating, Wheat, Winter [10, 15]: 40 | Plant response rating, Wheat, Winter [10, 16]: 40 | Plant response rating (scale of 0 to 100), Wheat, Winter ([10]; Preemergence, 31 g ai/ha): 0 | Plant response rating (scale of 0 to 100), Wheat, Winter ([10]; Preemergence, 62 g ai/ha): 10 | Plant response rating, Wheat, Winter [10, 17]: 25 | Plant response rating, Wheat, Winter [10, 18]: 50 | Plant response rating, Wheat, Winter [10, 19]: 35 | Field Violet plant response rating [11, 14]: 90 | Plant response rating, Field Violet [11, 15]: 100 | Plant response rating, Field Violet [11, 16]: 100 | Plant response rating (scale of 0 to 100), Field Violet ([11]; Preemergence, 31 g ai/ha): 95 | Plant response rating (scale of 0 to 100), Field Violet ([11]; Preemergence, 62 g ai/ha): 95 | Plant response rating, Field Violet [11, 17]: 100 | Plant response rating, Field Violet [11, 18]: 100 | Plant response rating, Field Violet [11, 19]: 98 | Field Poppy plant response rating [12, 14]: 65 | Plant response rating, Field Poppy [12, 15]: 75 | Plant response rating, Field Poppy [12, 16]: 90 | Plant response rating (scale of 0 to 100), Field Poppy ([12]; Preemergence, 31 g ai/ha): 15 | Plant response rating (scale of 0 to 100), Field Poppy ([12]; Preemergence, 62 g ai/ha): 100 | Plant response rating, Field Poppy [12, 17]: 100 | Plant response rating, Field Poppy [12, 18]: 100 | Plant response rating, Field Poppy [12, 19]: 70 | Deadnettle plant response rating [13, 14]: 70 | Plant response rating, Deadnettle [13, 15]: 100 | Plant response rating, Deadnettle [13, 16]: 100 | Plant response rating (scale of 0 to 100), Deadnettle ([13]; Preemergence, 31 g ai/ha): 15 | Plant response rating (scale of 0 to 100), Deadnettle ([13]; Preemergence, 62 g ai/ha): 70 | Plant response rating, Deadnettle [13, 17]: 90 | Plant response rating, Deadnettle [13, 18]: 98 | Plant response rating, Deadnettle [13, 19]: 80

From patent US10597388B2, “Pyridazinone herbicides” (FMC CORPORATION, priority 2014, dated 2020)
